Assay results: US7084268B1, “Carbapenem compound crystals and interjection preparations” (Eisai Co., Ltd., priority 1999, dated 2006)
Values joined by “and” are separate entries in the source; they are usually repeats but may differ in a detail not shown here. Equal entries are not always repeated. Structures can show the parent of a compound that is named as a salt.

Experiments:
Type in all cases: physicochemical
[1] = Effect of degasification of the air in a vial and/or replacement by nitrogen (storage of powdery charged preparations); details: for HPLC impurity, mean / content of residual carbapenem compound, mean: N=3
Description: As the monohydrate crystals, the powdery charged preparation of the novel carbapenem hydrochloride crystals (25 mg/vial) obtained in the method in Example 2-3 (replacement by nitrogen), the powdery charged preparation (25 mg/vial) subjected to replacement by oxygen in place of replacement by nitrogen in Example 2-3, and the powdery charged preparation (25 mg/vial) not subjected to replacement in Example 2-2 were stored at 60° C. for 5 days (N=3) and then measured for their color difference (ΔE), water content, powdery x-ray diffraction pattern, content of residual carbapenem and HPLC impurities. As the trihydrate crystals, the powdery charged preparation of the novel carbapenem hydrochloride crystals (25 mg/vial) obtained by the method (replacement by nitrogen) in Example 1-9 and the powdery charged preparation (25 mg/vial) not subjected to replacement in Example 1-8 were stored at 40° C. for 1 month and then measured for their color difference (ΔE), water content and content of residual carbapenem. The color difference was evaluated by a color difference meter (ZE-200, Nippondenso Co., Ltd.); the water content by a Karl-Fisher moisture meter (CA-05, Mitsubishi Kagaku Kogyo); the powdery X-ray diffraction under the method and conditions in Example 1-1 or 2-1; and the content of residual carbapenem and HPLC impurities by high performance liquid chromatography (Shimadzu Corporation). The color difference (ΔE) is a parameter indicative of a change in the color of the outward appearance of crystals, and its higher value indicates a greater coloration change than at an initial stage (just after production).

[2] = Storage of crystals in bottles without caps at various relative humidity, with or without oxygen absorbent; details: for water content (hygroscopicity): 25° C., 2 weeks, listed as monohydrate crystals, monohydrochloride monohydrate
Description: The novel carbapenem hydrochloride crystals were weighed in 25 mL wide-mouthed glass bottles (30 mg/bottle), and in the bottles without caps, the monohydrate was stored for 1 week at 40° C. at a relative humidity of 0%, 19.2%, 53% and 75%, and the trihydrate was stored for 2 weeks at 25° C. at a relative humidity of 11%, 33%, 51%, 75% and 93%. Then, the crystals were measured for their color difference (ΔE), water content, powdery X-ray diffraction pattern, and content of residual carbapenem. The monohydrate was also examined in the presence or absence of an oxygen absorbent (trade name: Ageless, produced by Mitsubishi Gas Chemical Co., Ltd.) during storage at each relative humidity. The oxygen absorbent makes oxygen-free conditions under which the preparation is placed.

[3] = Solubility in 62.5% (v/v) aqueous organic solvents, quantification in HPLC; details: for solubility at 30 min: aqueous organic solvent, 20 °C, aqueous with cosolvent or surfactant or cyclodextrin, thermodynamic from solid
Description: The solubility of (+)-(1R,5S,6S)-6-[(R)-1-hydroxyethyl]-1-methyl-2-[(2S,4S)-2-[(3R)-pyrrolidine-3-yl-(R)-hydroxymethyl]pyrrolidine-4-yl]thio-1-carbapen-2-em-3-carboxylic acid monohydrochloride monohydrate and trihydrate in various aqueous organic solvents at a concentration of 62.5% (v/v) in water at 20° C. was determined by HPLC in the following manner.

[4] = Storage of crystals in bottles without caps at various relative humidity, with or without oxygen absorbent; details: 25° C., 2 weeks, listed as monohydrate crystals, monohydrochloride monohydrate
[5] = 25 mg/vial, control (air), no replacement, stored 60° C. for 5 days
[6] = 25 mg/vial, control (air), no replacement, stored 60° C. for 5 days, monohydrochloride monohydrate
[7] = 25 mg/vial, gas for replacement nitrogen, stored 60° C. for 5 days
[8] = 25 mg/vial, gas for replacement nitrogen, stored 60° C. for 5 days, monohydrochloride monohydrate
[9] = 25 mg/vial, gas for replacement oxygen, stored 60° C. for 5 days
[10] = 25 mg/vial, gas for replacement oxygen, stored 60° C. for 5 days, monohydrochloride monohydrate
[11] = monohydrate powdery charged preparation, initial stage
[12] = 40° C., 1 week, relative humidity 0%, oxygen absorbent absence
[13] = 40° C., 1 week, relative humidity 0%, oxygen absorbent presence
[14] = 40° C., 1 week, relative humidity 19.2%, oxygen absorbent absence
[15] = 40° C., 1 week, relative humidity 19.2%, oxygen absorbent presence
[16] = 40° C., 1 week, relative humidity 53%, oxygen absorbent absence
[17] = 40° C., 1 week, relative humidity 53%, oxygen absorbent presence
[18] = 40° C., 1 week, relative humidity 75%, oxygen absorbent absence
[19] = 40° C., 1 week, relative humidity 75%, oxygen absorbent presence
[20] = monohydrate crystals, initial stage

C[C@@H](O)[C@H]1C(=O)N2C(C(=O)O)=C(S[C@@H]3CN[C@H]([C@H](O)[C@@H]4CCNC4)C3)[C@H](C)[C@H]12 [monohydrate, (+)-(1R,5S,6S)-6-[(R)-1-Hydroxyethyl]-1-methyl-2-[(2S,4S)-2-[(3R)-pyrrolidine-3-yl-(R)-hydroxymethyl]pyrrolidine-4-yl]thio-1-carbapen-2-em-3-carboxylic acid monohydrochloride monohydrate]
powdery X-ray diffraction pattern [1, 5]: no change
HPLC impurity, mean [1, 5]: 0.63%
content of residual carbapenem compound, mean [1, 5]: 98.40%
HPLC impurity [1, 6]: 0.62% and 0.64%
color difference (ΔE) [1, 6]: 10.48 and 11.21 and 10.41
content of residual carbapenem compound [1, 6]: 98.6% and 98.1%
water content [1, 6]: 5.87% and 5.93%
powdery X-ray diffraction pattern [1, 7]: no change
HPLC impurity, mean [1, 7]: 0.63%
content of residual carbapenem compound, mean [1, 7]: 98.40%
HPLC impurity [1, 8]: 0.63% and 0.64%
color difference (ΔE) [1, 8]: 4.23 and 4.57 and 5.23
water content [1, 8]: 5.80% and 5.78% and 5.77%
powdery X-ray diffraction pattern [1, 9]: no change
HPLC impurity, mean [1, 9]: 0.64%
content of residual carbapenem compound, mean [1, 9]: 97.80%
HPLC impurity [1, 10]: 0.63% and 0.64%
color difference (ΔE) [1, 10]: 12.7 and 12.14 and 11.46
content of residual carbapenem compound [1, 10]: 97.5% and 98.1% and 97.8%
water content [1, 10]: 5.78% and 5.77% and 5.75%
HPLC impurity [1, 11]: 1.03%
water content [1, 11]: 5.99%
water content (hygroscopicity) ([2]; relative humidity 33%): 5.6%
water content (hygroscopicity) ([2]; relative humidity 51%): 5.9%
color difference (ΔE) [2, 12]: 1.87
content of residual carbapenem compound [2, 12]: 101.1%
powdery X-ray diffraction pattern [2, 12]: no change
water content [2, 12]: 5.08%
color difference (ΔE) [2, 13]: 2.95
content of residual carbapenem compound [2, 13]: 100.3%
powdery X-ray diffraction pattern [2, 13]: no change
water content [2, 13]: 5.31%
color difference (ΔE) [2, 14]: 5.01
content of residual carbapenem compound [2, 14]: 99.9%
powdery X-ray diffraction pattern [2, 14]: no change
water content [2, 14]: 6.18%
color difference (ΔE) [2, 15]: 3.97
content of residual carbapenem compound [2, 15]: 100.5%
powdery X-ray diffraction pattern [2, 15]: no change
water content [2, 15]: 5.72%
color difference (ΔE) [2, 16]: 6.28
content of residual carbapenem compound [2, 16]: 100.6%
powdery X-ray diffraction pattern [2, 16]: no change
water content [2, 16]: 6.17%
color difference (ΔE) [2, 17]: 5.85
content of residual carbapenem compound [2, 17]: 102.0%
powdery X-ray diffraction pattern [2, 17]: no change
water content [2, 17]: 6.29%
color difference (ΔE) [2, 18]: 35.98
content of residual carbapenem compound [2, 18]: 99.8%
powdery X-ray diffraction pattern [2, 18]: no change
water content [2, 18]: 6.60%
color difference (ΔE) [2, 19]: 4.56
content of residual carbapenem compound [2, 19]: 100.8%
powdery X-ray diffraction pattern [2, 19]: no change
water content [2, 19]: 6.43%
HPLC impurity [2, 20]: 0.93%
water content [2, 20]: 5.49%
solubility ([3]; 62.5% (v/v) diethylene glycol monoethyl ether in water, 20° C., 30 minutes, monohydrochloride monohydrate): 6560 µg/mL
solubility at 30 min ([3]; 62.5% (v/v) 1-acetoxy-2-methyl ethane in water): 4180 µg/mL
solubility at 30 min ([3]; 62.5% (v/v) 1-ethoxy-2-propanol in water): 5060 µg/mL
solubility at 30 min ([3]; 62.5% (v/v) 1-methoxy-2-propanol in water): 4120 µg/mL
solubility at 30 min ([3]; 62.5% (v/v) 2-butoxyethanol in water): 13300 µg/mL
solubility at 30 min ([3]; 62.5% (v/v) 2-ethoxyethanol in water): 6740 µg/mL
solubility at 30 min ([3]; 62.5% (v/v) 2-isopropoxyethanol in water): 6030 µg/mL
solubility at 30 min ([3]; 62.5% (v/v) 2-methoxyethanol in water): 5370 µg/mL
solubility at 30 min ([3]; 62.5% (v/v) 3-methoxy-3-methyl-1-butanol in water): 5930 µg/mL
solubility at 30 min ([3]; 62.5% (v/v) 3-methoxybutanol in water): 4390 µg/mL
solubility at 30 min ([3]; 62.5% (v/v) IPA (isopropyl alcohol) in water): 6310 µg/mL
solubility at 30 min ([3]; 62.5% (v/v) acetonitrile in water): 15800 µg/mL
solubility at 30 min ([3]; 62.5% (v/v) diethylene glycol monomethyl ether in water): 3930 µg/mL
solubility at 30 min ([3]; 62.5% (v/v) dimethyl acetamide in water): 4060 µg/mL
solubility at 30 min ([3]; 62.5% (v/v) dimethyl ether in water): 1930 µg/mL
solubility at 30 min ([3]; 62.5% (v/v) dimethyl formamide in water): 5030 µg/mL
solubility at 30 min ([3]; 62.5% (v/v) dimethyl sulfoxide in water): 7500 µg/mL
solubility at 30 min ([3]; 62.5% (v/v) ethanol in water): 6600 µg/mL
solubility at 30 min ([3]; 62.5% (v/v) methanol in water): 10200 µg/mL
solubility at 30 min ([3]; 62.5% (v/v) n-propanol in water): 12300 µg/mL
solubility at 30 min ([3]; 62.5% (v/v) t-butanol in water): 8650 µg/mL
solubility at 30 min ([3]; 62.5% (v/v) tetrahydrofuran in water): 7220 µg/mL
solubility at 30 min ([3]; 62.5% (v/v) triethylene glycol monomethyl ether in water): 2860 µg/mL
water content (hygroscopicity) ([4]; relative humidity 11%): 5.0%
water content (hygroscopicity) ([4]; relative humidity 75%): 6.2%
water content (hygroscopicity) ([4]; relative humidity 93%): 8.4%
